# Assay results: patent publication US10370642B2, “Hematopoietic progenitor cell populations having affinity for E-selectin / L-selectin” (priority 2000, dated 2019)
# How the values were obtained:
# P-selectin = molecular target: T1, P-selectin (Homo sapiens, UniProt P16109); test: CHO-P cell rolling on immobilized immunoprecipitates, parallel-plate flow chamber; format: cell-based; conditions: 2.8 dynes/cm^2
# T1 construct: CHO-P (CHO stably transfected with human cDNA encoding full length P-selectin); expressed in transfected cells
# T1 sequence (P16109 42-830): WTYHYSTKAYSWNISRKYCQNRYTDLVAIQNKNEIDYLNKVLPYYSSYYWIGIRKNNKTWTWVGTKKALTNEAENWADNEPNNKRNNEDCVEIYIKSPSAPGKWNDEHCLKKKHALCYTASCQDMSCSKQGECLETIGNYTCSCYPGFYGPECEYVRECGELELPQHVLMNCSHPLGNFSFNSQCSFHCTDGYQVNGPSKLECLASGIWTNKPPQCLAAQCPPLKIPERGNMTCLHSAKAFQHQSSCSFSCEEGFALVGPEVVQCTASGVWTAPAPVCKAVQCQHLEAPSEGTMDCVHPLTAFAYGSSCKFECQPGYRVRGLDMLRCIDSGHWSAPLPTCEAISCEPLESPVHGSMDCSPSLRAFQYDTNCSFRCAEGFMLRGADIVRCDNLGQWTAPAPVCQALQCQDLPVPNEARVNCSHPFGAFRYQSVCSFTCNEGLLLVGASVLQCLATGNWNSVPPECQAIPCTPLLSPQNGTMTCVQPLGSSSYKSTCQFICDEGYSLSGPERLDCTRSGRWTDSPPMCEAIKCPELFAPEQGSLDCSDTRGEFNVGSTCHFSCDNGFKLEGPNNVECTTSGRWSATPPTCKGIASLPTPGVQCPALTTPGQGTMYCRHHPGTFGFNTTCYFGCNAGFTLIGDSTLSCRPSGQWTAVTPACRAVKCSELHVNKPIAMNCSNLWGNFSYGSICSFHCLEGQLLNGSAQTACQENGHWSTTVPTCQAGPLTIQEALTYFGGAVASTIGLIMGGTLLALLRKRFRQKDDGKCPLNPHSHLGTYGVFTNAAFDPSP
# Procedure: CD44 or PSGL-1 immunoprecipitates were spotted onto plastic petri dishes, fixed in 3% glutaraldehyde and incubated in 0.2M lysine to block unreactive aldehyde groups, and then non-specific binding was prevented by incubating in 100% FBS for 1 hr at RT. Fixed spots were also treated with Vibrio cholerae neuraminidase (0.1 U/ml assay medium), which was overlaid onto the spots and incubated at 37° C. for 1 hr. The protein dishes were placed in the parallel-plate flow chamber and CHO-E, CHO-P (CHO stably transfected with human cDNA encoding full length P-selectin), CHO-P cells treated with function blocking anti-P-selectin moAb (clone AK-4; Pharmingen) (10 μg/ml), CHO-E cells treated with function blocking anti-E-selectin Abs (10 μg/ml) (clone 68-5H1 1) or Mock transfectants were perfused into the chamber (2×10^6/ml H/H/Ca++) at a flow rate of 0.2 ml/min until the cells were in contact with the substrate. The flow rate was then increased to achieve a shear stress of 2.8 dynes/cm^2. The frequency of cells rolling per 100× magnification field was determined, and data were expressed as the mean±standard deviation of 8 fields visualized from a minimum of 3 experiments.
# L-selectin [1] = test: Stamper-Woodruff assay, lymphocyte adherence to immunoprecipitated CD44 and PSGL-1; format: cell-based, rat; conditions: equimolar amounts (0.75 μg CD44, 1 μg PSGL-1); 80 rpm
# Procedure: These protein spots were then fixed in 3% glutaraldehyde, unreactive aldehyde groups were blocked in 0.2M lysine and slides were kept in RPMI-1640 without NaBicarbonate/2% FBS until ready for testing. Lymphocytes (10^7/ml RPMI-1640 without NaBicarbonate/5% FBS) were overlayed onto these fixed immunoprecipitates and incubated on an orbital shaker at 80 rpm for 30 min. at 4° C. The number of adherent lymphocytes was quantified by light microscopy using an ocular grid under 100× magnification (a minimum of 5 fields/slide, 2 slides/experiment, and 3 separate experiments). Data were presented as the mean number of bound lymphocytes±standard deviation. KG1a CD34 and L-selectin control immunoprecipitates were also tested in this manner. To verify the dependence for sialic acid, glutaraldehyde-fixed spots were treated with Vibrio cholerae neuraminidase (0.1 U/ml RPMI-1640 without NaBicarbonate/2% FBS for lhr at 37° C.).
# Immunoaffinity purified material (0.75-3 μg/spot) was spotted onto glass slides for analyses in the Stamper-Woodruff assay (See below for assay description). For autoradiographic analysis of immunoprecipitated [^35S]-methionine-radiolabeled CD44 and PSGL-1, immunoprecipitates were spotted onto glass slides, allowed to dry and exposed Kodak BioMax-MR film for 12 h at −80° C. Densitometric analysis (optical density) of the autoradiograms was performed with a Hewlett-Packard Scanj et 5200C scanner and NIH Image processing and analysis program.
# L-selectin [2] = test: Blot rolling assay with L-selectin-expressing lymphocytes; format: cell-based; conditions: 2.3 dynes/cm^2
# Procedure: L-selectin-expressing lymphocytes were isolated as previously described (Oxley, S. M. & Sackstein, R. (1994). Blood. 84:3299-3306; Sackstein, R., Fu, L. and Allen, K. L. (1997) Blood. 89:2773-2781), washed twice in HBSS and suspended at 2×10^7/ml in HBSS/10 mM HEPES/2mMCaCl2 (H/H/Ca^++)/10% glycerol. Cell lysate material is separated by SDS-PAGE and transferred to PVDF under standard blotting conditions. Western blots of KG1a membrane preparations stained with HECA-452, A3D8 or Hermes-1 were rendered transparent by incubating them in H/H/Ca^++/10% glycerol. To study L-selectin-mediated adhesive interactions, the blots were placed in the parallel plate flow chamber and lymphocytes were perfused into the chamber at a shear force of 2.3 dynes/cm^2 and cellular adhesive interactions are observed by video microscopy and analyzed in real time.
# The number of lymphocytes rolling on and between each immunostained banding region was quantified from five independent fields under 200× magnification on the video monitor using molecular weight markers as guides to help align and visualize the proteins of interest. A minimum of 3 experiments were performed, and results were expressed as the mean of cell rolling/field.
# L-selectin [3] = test: Stamper-Woodruff assay, lymphocyte adherence to immunoprecipitated CD44 and PSGL-1; format: cell-based, rat; conditions: equimolar amounts; from 40 to 100 rpm
# L-selectin [4] = test: Stamper-Woodruff assay of immunoprecipitated KG1a CD44 (Example 7); format: cell-based; conditions: immunoprecipitate spotted onto glass slides
# Description: To further analyze the L-selectin ligand activity of CD44, we performed Stamper-Woodruff assays using immunoprecipitated CD44 or isotype control (rat lgG)
# immunoprecipitates of KG1 a cells that was spotted onto glass slides as described (Sackstein, R. & Dimitroff, C. J. (2000). Blood. 96, 2765-2774).
substance,measurement,setting,value
"KG1a CD44: glycoform of CD44 with HECA-452 reactive sialylated, fucosylated N-glycans, immunoprecipitated from KG1a cells with Hermes-1",P-selectin ligand activity (CHO-P cell rolling),P-selectin,not a P-selectin ligand
same,fold greater lymphocyte binding compared with PSGL-1,L-selectin [1],up to 10 fold
same,L-selectin ligand activity (lymphocyte tethering and rolling) in blot rolling assay,L-selectin [2],supported L-selectin ligand interactions
same,fold higher lymphocyte adherence compared with PSGL-1,L-selectin [3],5- to 10 fold
same,L-selectin-mediated lymphocyte adherence,L-selectin [4],362±15 bound cells/field
